{"source": "patent US20130023553A1", "about": "“PEGYLATED OPIOIDS WITH LOW POTENTIAL FOR ABUSE AND SIDE EFFECTS” (Nektar Therapeutics, priority 2010, published 2013)", "key": {"[1]": {"experiment": "Pharmacokinetics following oral (PO) dosing", "type": "in vivo, Sprague-Dawley rats", "conditions": "male, Sprague-Dawley, rat, plasma, po, 5 mg/kg", "source_text": "(§1) There were 3 rats/group. All animals were food fasted overnight. […] The predose sample was collected from the JVC.\n(§2) Following the last collection point, the animals were euthanized."}, "[2]": {"experiment": "Pharmacokinetics following intravenous (IV) dosing", "type": "in vivo, Sprague-Dawley rats", "conditions": "male, Sprague-Dawley, rat, plasma, iv, 1 mg/kg; for Cmax: read-out: Cmax; for half-life: read-out: T1/2(2); for Vd: read-out: Vss", "source_text": "as §1, §2"}, "[3]": {"target": "T1, human kappa opioid receptor (Homo sapiens, UniProt P41145)", "T1 construct": "expressed in transfected cells; host or cells: CHO cells", "T1 sequence (P41145 whole entry)": "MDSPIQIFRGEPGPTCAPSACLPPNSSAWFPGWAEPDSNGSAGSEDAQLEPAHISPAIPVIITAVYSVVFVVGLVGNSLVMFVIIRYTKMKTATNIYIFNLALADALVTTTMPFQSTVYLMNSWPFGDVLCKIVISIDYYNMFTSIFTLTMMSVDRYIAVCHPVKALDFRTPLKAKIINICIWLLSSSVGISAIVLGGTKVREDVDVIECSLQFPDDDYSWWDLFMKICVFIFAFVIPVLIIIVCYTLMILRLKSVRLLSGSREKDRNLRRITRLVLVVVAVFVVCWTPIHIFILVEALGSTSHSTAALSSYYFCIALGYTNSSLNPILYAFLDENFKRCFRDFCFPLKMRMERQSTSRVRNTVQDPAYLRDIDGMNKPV", "experiment": "cell-based", "conditions": "for Emax: maximal response at the highest tested concentration, read-out: % max effect, kappa opioid receptor", "experimental": "(§3) Studies were conducted in CHO cells heterologously expressing the cloned human mu, kappa or delta opioid receptors. cAMP was measured using a cAMP HiRange homogenous time-resolved fluorescence assay (HTRF Assay), that is based on a competitive immunoassay principle (Cisbio, Cat.#62AM6PEC).\n(§4) Briefly, suspensions of cells expressing either the mu, kappa or delta opioid receptors were prepared in buffer containing 0.5 mM isobutyl-methyl xanthine (IBMX). […] EC50 values were calculated for each compound from a sigmoidal dose-response plot of concentrations versus maximum response. To determine if the compounds behaved as full or partial agonists in the system, the maximal response at the highest tested concentrations of compounds were compared to that produced by a known full agonist."}, "human mu opioid receptor [4]": {"target": "T2, human mu opioid receptor (Homo sapiens, UniProt P35372)", "T2 construct": "expressed in transfected cells; host or cells: CHO cells", "T2 sequence (P35372 whole entry)": "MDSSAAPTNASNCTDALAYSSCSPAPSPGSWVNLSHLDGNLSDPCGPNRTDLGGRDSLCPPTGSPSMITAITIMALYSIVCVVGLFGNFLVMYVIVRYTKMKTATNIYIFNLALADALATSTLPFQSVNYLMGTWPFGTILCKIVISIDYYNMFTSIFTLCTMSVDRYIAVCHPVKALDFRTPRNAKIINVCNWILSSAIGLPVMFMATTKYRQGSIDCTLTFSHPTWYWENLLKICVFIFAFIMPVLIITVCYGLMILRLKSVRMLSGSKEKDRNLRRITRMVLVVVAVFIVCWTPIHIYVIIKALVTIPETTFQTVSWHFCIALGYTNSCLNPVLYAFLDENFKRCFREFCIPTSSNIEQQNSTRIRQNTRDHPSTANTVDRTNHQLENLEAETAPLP", "experiment": "cell-based", "conditions": "for Emax: maximal response at the highest tested concentration, read-out: % max effect, mu opioid receptor; for EC50: read-out: EC50, mu opioid receptor", "experimental": "as §3, §4"}, "[5]": {"target": "T1, human kappa opioid receptor", "experiment": "biochemical", "type": "binding", "experimental": "(§5) Radioligand displacement was measured using scintillation proximity assays (SPA).\n(§6) Briefly, serial dilutions of the test compounds were placed in a 96-well plate to which were added SPA beads, membrane and radioligand. The assay conditions for each opioid receptor subtype are described in Table 10 below. The plates were incubated for 8 hours-overnight at room temperature, spun at 1000 rpm to pellet the SPA beads, and radioactivity was measured using the TopCount® microplate Scintillation counter. Specific binding at each concentration of test compound was calculated by subtracting the non-specific binding measured in the presence of excess cold ligand. IC50 values were obtained by non-linear regression of specific binding versus concentration curves and Ki values were calculated using Kd values that were experimentally pre-determined for each lot of membrane preparations."}, "human mu opioid receptor [6]": {"target": "T2, human mu opioid receptor", "experiment": "biochemical", "type": "binding", "conditions": "CHO-K1 membranes, [3H]DAMGO 6 nM; read-out: Ki, Mu opioid receptor", "experimental": "as §5, §6"}, "mice": {"tested_on": "mice", "experiment": "Oral dose giving maximal analgesia", "type": "in vivo"}, "squirrel monkeys": {"tested_on": "squirrel monkeys", "experiment": "Monkey self-administration model of addictive potential", "source_text": "Dose-related effects of the test articles were examined, using two or more doses of each drug in 3-4 subjects in a double alternation schedule in which each unit dose (or vehicle) was used in two consecutive sessions before a change in unit dose.\nAddictive potential of opioid compounds and opioid conjugates of the invention may be assessed through the use of squirrel monkey models as known in the art.\nUnder the double alternation schedule, each unit dose (or vehicle) was available for intravenous self-administration for two consecutive sessions before the unit dose was changed. In this way, it was possible to establish the function relating unit dose of intravenous drug to (i) number of injections per session, and/or (ii) the percentage of total responses that occur on the lever leading to self-administration (injection-lever responding, % ILR). Unit doses of drugs ranged from 0.01 to 3.2 mg/kg/injection."}, "Male CD-1 mice": {"tested_on": "Male CD-1 mice", "experiment": "Assessment of CNS side effects in mice (Straub tail, muscle rigidity, pinna reflex)", "conditions": "for Loss Pinna, number of animals responding (N=2) / Muscle Rigidity, number of animals responding (N=2) / Straub Tail Effect, number of animals responding (N=2): oral", "source_text": "The objective of this study was to provide an approximation of the side effect profile of various oligomeric conjugates for comparison to the parent compounds by measuring various gross behavioral and physiological signs following administration of compound.\nAdditional evaluations included muscle rigidity and pinna reflex.\nMale CD-1 mice from Charles River Laboratories, Raleigh, N.C., weighing from 16-18 grams were maintained on a regular light/dark cycle (lights on 0600-1800) with ad libitum food and water for 1 week before commencement of testing. N=2 per treatment condition, i.e., separate mice for each dose of each test article, injection was performed via a 25-gauge ⅝-inch needle on a 1-mL tuberculin syringe for the s.c. route and a 22-gauge stainless steel mouse feeding tube for the p.o. route (Becton, Dickinson & Co., Franklin Lakes, N.J.). Each treatment condition was divided about evenly between two observers. […] Test article was administered (s.c. or p.o., and the mouse was placed immediately in the observation chamber). One-half, 1, 2, and 3 hours later, the animal was observed undisturbed for gross signs such as locomotor ataxia, tremor, hyperactivity, hypoactivity, convulsions, hindlimb splay, and Straub tail, and then removed and assessed for muscle tone (normal, rigid, flaccid), pinna reflex (presence or absence), righting reflex (intact or lost), and placing (whether or not the forepaws are extended when the mouse is placed near a surface).\nEach of the tables show the number of animals responding at each dose, where N=2. […] A bolded value indicates the lowest dose at which a response was detected."}}}
{"smiles": "COCCOCCOC1C=CC2C3Cc4ccc(OC)c5c4C2(CCN3C)C1O5", "note": "(stereo not drawn) [α-6-mPEG2-O-codeine]", "values": [{"measurement": "AUC", "setting": "[1]", "value": 5.85, "unit": "ng·h/mL"}, {"measurement": "AUC(0-inf)", "setting": "[1]", "value": 6.98, "unit": "ng·h/mL"}, {"measurement": "MRT last", "setting": "[1]", "value": 62, "unit": "min"}, {"measurement": "bioavailability", "setting": "[1]", "value": 0.57, "unit": "%"}, {"measurement": "Cmax", "setting": "[1]; read-out: Cmax", "value": "3.47 ± 0.606", "unit": "ng/mL"}, {"measurement": "half-life", "setting": "[1]; read-out: T1/2(2)", "value": "97.6 ± 28.4", "unit": "min"}, {"measurement": "Tmax", "setting": "[1]; read-out: Tmax (converted)", "value": 15, "unit": "min"}, {"measurement": "AUC", "setting": "[2]", "value": 242, "unit": "ng·h/mL"}, {"measurement": "AUC(0-inf)", "setting": "[2]", "value": 243, "unit": "ng·h/mL"}, {"measurement": "MRT last", "setting": "[2]", "value": 31.5, "unit": "min"}, {"measurement": "clearance", "setting": "[2]", "value": "69 ± 7.57", "unit": "mL/min/kg"}, {"measurement": "Cmax", "setting": "[2]", "value": "685 ± 41", "unit": "ng/mL"}, {"measurement": "half-life", "setting": "[2]", "value": "35.3 ± 2.78", "unit": "min"}, {"measurement": "Vd", "setting": "[2]", "value": "2.25 ± 0.166", "unit": "L/kg"}, {"measurement": "EC50", "setting": "[3]", "value": 40.1, "unit": "µM"}, {"measurement": "Emax", "setting": "[3]", "value": 59, "unit": "%"}, {"measurement": "Emax", "setting": "human mu opioid receptor [4]", "value": 75, "unit": "%"}, {"measurement": "EC50", "setting": "human mu opioid receptor [4]", "value": 5.14, "unit": "µM"}, {"measurement": "Ki", "setting": "[5]", "value": 22.6, "unit": "µM"}, {"measurement": "Ki", "setting": "human mu opioid receptor [6]", "value": 1.38, "unit": "µM"}]}
{"smiles": "COCCOC1C=CC2C3Cc4ccc(OC)c5c4C2(CCN3C)C1O5", "note": "(stereo not drawn) [α-6-mPEG1-O-codeine]", "values": [{"measurement": "AUC", "setting": "[2]", "value": 258, "unit": "ng·h/mL"}, {"measurement": "AUC(0-inf)", "setting": "[2]", "value": 262, "unit": "ng·h/mL"}, {"measurement": "MRT last", "setting": "[2]", "value": 32.2, "unit": "min"}, {"measurement": "clearance", "setting": "[2]", "value": "64.6 ± 8.75", "unit": "mL/min/kg"}, {"measurement": "Cmax", "setting": "[2]", "value": "723 ± 31.2", "unit": "ng/mL"}, {"measurement": "half-life", "setting": "[2]", "value": "42.1 ± 4.84", "unit": "min"}, {"measurement": "Vd", "setting": "[2]", "value": "2.22 ± 0.899", "unit": "L/kg"}, {"measurement": "Emax", "setting": "[3]", "value": 51, "unit": "%"}, {"measurement": "Emax", "setting": "human mu opioid receptor [4]", "value": 80, "unit": "%"}, {"measurement": "EC50", "setting": "human mu opioid receptor [4]", "value": 8.57, "unit": "µM"}, {"measurement": "Ki", "setting": "[5]", "value": 54.7, "unit": "µM"}, {"measurement": "Ki", "setting": "human mu opioid receptor [6]", "value": 1.82, "unit": "µM"}]}
{"smiles": "CN1CC[C@]23c4c5ccc(O)c4O[C@H]2[C@@H](O)C=C[C@H]3[C@H]1C5", "note": "[Morphine, morphine, reference compound]", "values": [{"measurement": "oral dose at which maximal analgesia was obtained", "setting": "mice", "value": 20, "unit": "mg/kg"}, {"measurement": "injection lever responses (% ILR)", "setting": "squirrel monkeys; 0.03 mg/kg/injection", "value": 100, "unit": "%"}, {"measurement": "subjects showing addictive behavior", "setting": "squirrel monkeys; 0.1 mg/kg/injection", "value": 100, "unit": "%"}, {"measurement": "mice showing the straub tail response", "setting": "Male CD-1 mice; oral doses up to 100 mg/kg", "value": 100, "unit": "%"}, {"measurement": "Loss Pinna, number of animals responding (N=2)", "setting": "Male CD-1 mice; 1 mg/kg", "value": 0}, {"measurement": "Muscle Rigidity, number of animals responding (N=2)", "setting": "Male CD-1 mice; 1 mg/kg", "value": 0}, {"measurement": "Straub Tail Effect, number of animals responding (N=2)", "setting": "Male CD-1 mice; 1 mg/kg", "value": 0}, {"measurement": "Loss Pinna, number of animals responding (N=2)", "setting": "Male CD-1 mice; 3 mg/kg", "value": 2}, {"measurement": "Muscle Rigidity, number of animals responding (N=2)", "setting": "Male CD-1 mice; 3 mg/kg", "value": 0}, {"measurement": "Straub Tail Effect, number of animals responding (N=2)", "setting": "Male CD-1 mice; 3 mg/kg", "value": 2}, {"measurement": "Loss Pinna, number of animals responding (N=2)", "setting": "Male CD-1 mice; 10 mg/kg", "value": 1}, {"measurement": "Muscle Rigidity, number of animals responding (N=2)", "setting": "Male CD-1 mice; 10 mg/kg", "value": 1}, {"measurement": "Straub Tail Effect, number of animals responding (N=2)", "setting": "Male CD-1 mice; 10 mg/kg", "value": 2}, {"measurement": "Loss Pinna, number of animals responding (N=2)", "setting": "Male CD-1 mice; 30 mg/kg", "value": 2}, {"measurement": "Muscle Rigidity, number of animals responding (N=2)", "setting": "Male CD-1 mice; 30 mg/kg", "value": 2}, {"measurement": "Straub Tail Effect, number of animals responding (N=2)", "setting": "Male CD-1 mice; 30 mg/kg", "value": 2}, {"measurement": "Loss Pinna, number of animals responding (N=2)", "setting": "Male CD-1 mice; 100 mg/kg", "value": 2}, {"measurement": "Muscle Rigidity, number of animals responding (N=2)", "setting": "Male CD-1 mice; 100 mg/kg", "value": 2}, {"measurement": "Straub Tail Effect, number of animals responding (N=2)", "setting": "Male CD-1 mice; 100 mg/kg", "value": 1}, {"measurement": "Loss Pinna, number of animals responding (N=2)", "setting": "Male CD-1 mice; 300 mg/kg", "value": 2}, {"measurement": "Muscle Rigidity, number of animals responding (N=2)", "setting": "Male CD-1 mice; 300 mg/kg", "value": 2}, {"measurement": "Straub Tail Effect, number of animals responding (N=2)", "setting": "Male CD-1 mice; 300 mg/kg", "value": 1}]}
